No end group written: not given here.

One assay concerns animal. As to conditions: in vivo; cited from earlier work.
Assay [1] concerns male Sprague Dawley rats. In words: Feeding study: food intake after infusion into the third ventricle of 24 h fasted rats. In kind it is in vivo, rat. The procedure: Animals used in vivo food intake studies were male Sprague Dawley rats weighing between 280 and 320 grams. The rats were housed in a room illuminated from 06:00 to 18:00 hours (twelve hour light-dark cycle) with a temperature maintained at 21 ±1° C. Both tap water and powdered laboratory chow (Laboratory chow #5001, Purina Mills, Inc.) were provided ad libitum to the rats.
Rats used in the study were surgically equipped with an infusion cannula in the third ventricle. Under sodium pentobarbital anesthesia (50 mg/kg ip), each rat was fixed in a stereotaxic apparatus, its skull was exposed, and two small screws were threaded into the skull to anchor the cannula. A three millimeter diameter hole was drilled in the skull on the midline six millimeters anterior to ear bar zero. […]
In the feeding study, food was removed twenty four hours before the experiment, but free access to water was allowed. […] After twenty four hours of fasting, each rat was re-fed at 13:00 hour, and powdered food consumption was measured at thirty minutes after the resumption of feeding. […]
Data from the feeding study were evaluated using one-way analysis of variance, and multiple comparisons were carried out using the method of least significant difference. […]

For assay [2] the following is noted: apo A-IV appearing in mesenteric lymph after a lipid meal; cited from earlier work.
For assay [3], the system named is male Sprague Dawley rats. As to conditions: cited from earlier work.

anorectin: in the assay with animal, the “food intake in animal studies” value is on record as “decrease food intake”. For cyclo-HisPro, the “food intake in animal studies” value in the assay with animal was “decrease food intake”.

For the molecule “EVTSDQVANVMWDYFTQL SNNAKEAVEQLQ (EVTSDQVANVMWDYFTQLSNNAKEAVEQLQ) [SEQ ID NO:1, 30-mer, first thirty amino acids of the mature rat apo A-IV]”, in the assay with male Sprague Dawley rats [1] (synthetic peptide infused into third ventricle, doses 0.125-1.0 μg per rat, 24 h fasted, food consumption at thirty minutes after re-feeding), the “inhibition of food intake” value was “inhibit food intake in a dose-dependent manner”.

“corticotropin releasing hormone (SEEPPISLDLTFHLLREVLEMARAEQLAQQAHSNRKLMEII; ends and bridges not checked; UniProt P06850 154-194, looked up) [peptide proposed as affecting eating behavior]”: in the assay with animal, the “food intake in animal studies” value was “decrease food intake”. As for “calcitonin (CGNLSTCMLGTYTQDFNKFHTFPQTAIGVGAP; ends and bridges not checked; cysteine pairing not given here; UniProt P01258 85-116, looked up) [peptide proposed as affecting eating behavior]”, the “food intake in animal studies” value in the assay with animal is “decrease food intake”. For the molecule enterostatin, the “food intake in animal studies” value in the assay on animal is given as “decrease food intake”. As for Glucagon, in the assay with animal, the “food intake in animal studies” value is on record as “decrease food intake”.

As for `CSCC[C@H](NC(=O)[C@H](CC(C)C)NC(=O)[C@H](Cc1cnc[nH]1)NC(=O)CNC(=O)[C@@H](NC(=O)[C@H](C)NC(=O)[C@H](Cc1c[nH]c2ccccc12)NC(=O)[C@H](CCC(N)=O)NC(=O)[C@H](CC(N)=O)NC(=O)CNC(=O)[C@H](CC(C)C)NC(=O)[C@H](CCCN=C(N)N)NC(=O)[C@H](CCC(N)=O)NC(=O)[C@@H]1CCC(=O)N1)C(C)C)C(N)=O` [bombesin], the “food intake in animal studies” value in the assay on animal is “decrease food intake”.

B1: cholecystokinin (peptide, UniProt P06307 21-115, looked up)
Cholecystokinin: QPVPPADPAGSGLQRAEEAPRRQLRVSQRTDGESRAHLGALLARYIQQARKAPSGRMSIVKNLQNLDPSHRISDRDYMGWMDFGRRSAEEYEYPS
modifications: Cholecystokinin
notes: peptide proposed as affecting eating behavior
Turning to B1, the “food intake in animal studies” value in the assay on animal was “decrease food intake”.

B2: apo A-IV: 46,000-Da polypeptide associated with lipoproteins; species of the cited test protein not printed (protein, UniProt P06727 21-396, looked up)
Apolipoprotein A-IV: EVSADQVATVMWDYFSQLSNNAKEAVEHLQKSELTQQLNALFQDKLGEVNTYAGDLQKKLVPFATELHERLAKDSEKLKEEIGKELEELRARLLPHANEVSQKIGDNLRELQQRLEPYADQLRTQVSTQAEQLRRQLTPYAQRMERVLRENADSLQASLRPHADELKAKIDQNVEELKGRLTPYADEFKVKIDQTVEELRRSLAPYAQDTQEKLNHQLEGLTFQMKKNAEELKARISASAEELRQRLAPLAEDVRGNLRGNTEGLQKSLAELGGHLDQQVEEFRRRVEPYGENFNKALVQQMEQLRQKLGPHAGDVEGHLSFLEKDLRDKVNSFFSTFKEKESQDKTLSLPELEQQQEQQQEQQQEQVQMLAPLES
Turning to B2, the food intake entry in assay [2] is “suppresses food intake”. For the same molecule, in the assay on male Sprague Dawley rats [3] (administered centrally), the “food intake after central administration” value is recorded as “significantly suppressed in a dose-dependent manner”. In the assay on male Sprague Dawley rats [3] (central vs peripheral administration), the “potency administered centrally versus peripherally” value is recorded as “more than 50 fold”.

B3: human apo A-IV: entire human apolipoprotein A-IV molecule obtained from human serum, purified by preparative polyacrylamide gel electrophoresis (protein, UniProt P06727 21-396, looked up)
Apolipoprotein A-IV: EVSADQVATVMWDYFSQLSNNAKEAVEHLQKSELTQQLNALFQDKLGEVNTYAGDLQKKLVPFATELHERLAKDSEKLKEEIGKELEELRARLLPHANEVSQKIGDNLRELQQRLEPYADQLRTQVSTQAEQLRRQLTPYAQRMERVLRENADSLQASLRPHADELKAKIDQNVEELKGRLTPYADEFKVKIDQTVEELRRSLAPYAQDTQEKLNHQLEGLTFQMKKNAEELKARISASAEELRQRLAPLAEDVRGNLRGNTEGLQKSLAELGGHLDQQVEEFRRRVEPYGENFNKALVQQMEQLRQKLGPHAGDVEGHLSFLEKDLRDKVNSFFSTFKEKESQDKTLSLPELEQQQEQQQEQQQEQVQMLAPLES
For B3, the “suppression of food intake” value in the assay with male Sprague Dawley rats [1] (third ventricle infusion, 1.5 and 3 μg per rat) was “effective in suppressing food intake in rats in a dose dependent manner”.
